Experiment [1] relates to nitroreductase NfsA-expressing HCT116 'activator' cells. In words: MCL (multicellular layer) bystander experiment, NfsA-dependent activation. The format is cell-based, human. Here is the method:
Displacement of the Target cell survival curve to the left (T to Tc) is indicative of the presence of a cytotoxic metabolite(s) able to diffusible out of the sensitive activator (A) cell population. The prodrug concentrations for 10% survival (C10) of target cells (wild-type cells) grown without activators (T), targets in co-culture (TC) and activators (nfsA-expressing cells) in co-culture (AC) were determined by interpolation. BEE-Bystander effect efficiency calculates the drugs bystander effect: ((Log C10T−Log C10TC)/(Log C10T−Log C10AC)).
The prodrug concentrations for 10% survival (C10) of target cells (wild-type cells) grown without activators (T), and targets in co-culture (TC) and activators (NTR-expressing cells) in co-culture (AC) can be determined. The bystander effect of a test prodrug is measured by the bystander effect efficiency which can be calculated using the algorithm ((Log C10T−Log C10TC)/(Log C10T−Log C10AC)).
Millicell-CM membrane inserts (Millipore) were coated in calf-skin collagen type III (Sigma-Aldrich) to facilitate cell attachment. […] After exposure, inserts were disaggregated (0.07% trypsin, 10 min, 37° C., followed by 100 μg/ml DNAase I (Sigma-Aldrich). Cells were counted, resuspended and plated in P60 dishes to determine clonogenic survival. To discriminate clonogenic activator (NTR+) from target (NTR−) colonies cells were plated in non-selective medium (total cells) and medium containing 1 μM puromycin (activator cells). Colonies were grown in a 37° C. 5% CO2 incubator for 10 days before staining with methylene blue (2 g/liter in 50% v/v aqueous ethanol). Colonies containing >50 cells were counted as clonogenic survivors. Surviving fractions for each population was calculated as the plating efficiency for drug-treated MCLs/untreated controls. The drug concentrations for 10% survival (C10) of target cells grown without activators (T), targets in co-culture (Tc) and activators in co-culture (Ac) was determined by interpolation.

Experiment [2] has as its system HCT116 cells expressing E. coli NfsA. In kind it is cell-based, human. Particulars: 18 hrs exposure, 5 days regrowth; IC50 of WT versus NTR-expressing cells. Here is the method: FIGS. 10 (B) and 10 (C) illustrates the results of evaluation of 2-nitroimidazole clinical imaging candidates with E. coli and non-E. coli NTRs. Stably-expressing cells were treated with varying concentration of 2-nitroimidazole prodrugs diluted in αMEM+5% FCS+P/S. Cells were exposed to prodrug for 18 hrs, washed and left to regrow for 5 days. IC50 was determined as the concentration of prodrug required to inhibit cell growth by 50% of untreated controls. IC50 values are mean for ≥2 independent experiments. WT:NTR ratio-ratio of IC50 means from WT cells versus NTR-expressing cell lines.
FIG. 21 illustrates antiproliferative activity (IC50 value) of prodrug candidates with E. coli and non-E. coli nitroreductases. Stably-expressing cells were treated with varying concentration of prodrug diluted in αMEM+5% FCS+P/S. Cells were exposed to prodrug for 18 hrs, washed and left to regrow for 5 days. IC50 was determined as the concentration of prodrug required to inhibit cell growth by 50% of untreated controls. IC50 values are mean for ≥2 independent experiments. WT:NTR ratio-interexperimental ratio of IC50 means from WT cells versus NTR-expressing cell lines.
Isolated NTR gene sequences were subject to PCR and introduced in the bicistronic plasmid F579 via Gateway cloning (Invitrogen) as described by Prosser et al. (2010, Biochem Pharmacol, 79, 678-687). Stably transfected cell lines were created by transfection of the relevant plasmid using FuGENE 6 Transfection Reagent (Roche). Transfected cell populations were maintained by passage in puromycin
Cells were passaged in alpha-Minimal Essential Media, (αMEM; Gibco) supplemented with 5% FBS, (GIBCO NZ) without antibiotics. Cell were passaged for <3 months from frozen stocks and confirmed Mycoplasma free (PCR-ELISA; Roche Diagnostics). Cells were aliquoted into the 96-well plate (100 μL/well) and cells were left to attach (≥4 hrs). […] Plates were read on an ELx 808 Absorbance Microplate Reader (Bio-Tek Instruments). Absorbance was measured at 490 nm and 450 nm (final absorbance 490-450). […]

Take `O=C(Cn1ccnc1[N+](=O)[O-])NCC(F)(F)C(F)(F)F` [EF5, 2-(2-nitro-1H-imidazol-1-yl)-N-(2,2,3,3,3-pentafluoropropyl)acetamide]: the “bystander property (in words)” value in experiment [1] (MCL of NTR-expressing and parental HCT116 cells) was “zero bystander property”. Besides, the “concentration-time giving 90% loss of viability for nfsA expressing HCT116 cells” value in experiment [1] (cold (radiolabel-free) EF5) amounted to 0.7 mM-hr. Further, the “estimated bystander effect efficiency (BEE)” value in experiment [1] (hyperoxic (95% O2) MCLs, at concentrations achievable in α-MEM+10% FBS, activator fraction differs per experiment) was 0%. Besides, the “WT:NTR ratio (maximum growth inhibitory effect)” value in experiment [2] is 1600 fold.

These data come from patent US10357577B2, “Bacterial nitroreductase enzymes and methods relating thereto” (AUCKLAND UNISERVICES LIMITED, priority 2010, dated 2019).
